{"source": "ChEMBL document CHEMBL5715949", "about": "“Discovery of a selective irreversible BMX inhibitor for prostate cancer” (ACS Chem Biol, 2013)", "key": {"[1]": {"target": "Vascular endothelial growth factor receptor 3 (Homo sapiens) (UniProt P35916)", "sequence (P35916 whole entry)": "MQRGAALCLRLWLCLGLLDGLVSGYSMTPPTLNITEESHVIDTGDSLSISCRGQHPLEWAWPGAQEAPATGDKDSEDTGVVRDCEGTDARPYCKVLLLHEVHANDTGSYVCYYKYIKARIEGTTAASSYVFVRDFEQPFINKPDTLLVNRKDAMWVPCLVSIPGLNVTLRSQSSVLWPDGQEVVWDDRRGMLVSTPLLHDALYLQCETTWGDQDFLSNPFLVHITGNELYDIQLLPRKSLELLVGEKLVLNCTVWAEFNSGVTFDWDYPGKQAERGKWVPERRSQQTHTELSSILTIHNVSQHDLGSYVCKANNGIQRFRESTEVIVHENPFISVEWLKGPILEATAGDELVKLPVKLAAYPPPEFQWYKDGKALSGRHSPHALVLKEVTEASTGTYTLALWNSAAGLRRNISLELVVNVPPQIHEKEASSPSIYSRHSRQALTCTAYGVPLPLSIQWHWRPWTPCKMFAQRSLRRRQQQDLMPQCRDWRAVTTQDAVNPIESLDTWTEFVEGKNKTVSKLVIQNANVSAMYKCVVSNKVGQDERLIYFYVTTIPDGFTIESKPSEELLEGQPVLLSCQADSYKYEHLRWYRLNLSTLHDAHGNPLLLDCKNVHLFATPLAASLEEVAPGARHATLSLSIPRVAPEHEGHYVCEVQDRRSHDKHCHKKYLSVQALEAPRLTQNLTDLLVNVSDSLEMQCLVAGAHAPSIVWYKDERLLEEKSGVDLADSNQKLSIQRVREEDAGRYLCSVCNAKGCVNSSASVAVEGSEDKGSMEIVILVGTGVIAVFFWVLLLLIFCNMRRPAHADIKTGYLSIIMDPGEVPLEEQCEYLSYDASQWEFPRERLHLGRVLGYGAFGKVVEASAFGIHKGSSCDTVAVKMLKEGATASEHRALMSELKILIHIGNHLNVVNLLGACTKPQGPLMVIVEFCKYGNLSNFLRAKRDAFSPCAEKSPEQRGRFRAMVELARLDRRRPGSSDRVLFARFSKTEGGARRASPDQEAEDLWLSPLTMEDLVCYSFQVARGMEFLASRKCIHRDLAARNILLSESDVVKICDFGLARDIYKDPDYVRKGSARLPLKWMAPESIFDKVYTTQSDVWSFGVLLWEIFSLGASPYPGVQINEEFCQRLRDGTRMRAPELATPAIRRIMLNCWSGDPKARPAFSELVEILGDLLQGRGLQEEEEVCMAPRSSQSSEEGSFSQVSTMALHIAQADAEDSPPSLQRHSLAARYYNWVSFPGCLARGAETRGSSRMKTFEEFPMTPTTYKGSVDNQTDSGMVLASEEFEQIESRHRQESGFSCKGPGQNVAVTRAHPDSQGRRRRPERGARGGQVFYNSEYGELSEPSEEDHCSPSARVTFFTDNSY", "test": "Inhibition of FLT4 (unknown origin) assessed as remaining activity at 1 uM by Kinome scan method relative to control"}, "[2]": {"test": "Inhibition of PI3K/AKT/mTOR signalling pathway in human RV-1 cells assessed as decrease in 4EBP phosphorylation at T37/46 residue at 2.5 uM incubated for 5 days by immunoblot analysis", "format": "cell-based", "settings": "time 5.0 day"}, "RV-1 [3]": {"tested_on": "RV-1", "test": "Antiproliferative activity against human RV-1 cells assessed as reduction in cell viability at 500 to 2500 nM incubated for 5 days in presence of gefitinib by CellTiter-Glo assay", "format": "functional, cell-based", "settings": "dose 500-2500 nM, time 5.0 day"}, "[4]": {"target": "AP2-associated protein kinase 1 (Homo sapiens) (UniProt Q2M2I8)", "test": "Inhibition of AAK1 (unknown origin) assessed as remaining activity at 1 uM by Kinome scan method relative to control"}, "[5]": {"target": "Serine/threonine-protein kinase ULK3 (Homo sapiens) (UniProt Q6PHR2)", "sequence (Q6PHR2 whole entry)": "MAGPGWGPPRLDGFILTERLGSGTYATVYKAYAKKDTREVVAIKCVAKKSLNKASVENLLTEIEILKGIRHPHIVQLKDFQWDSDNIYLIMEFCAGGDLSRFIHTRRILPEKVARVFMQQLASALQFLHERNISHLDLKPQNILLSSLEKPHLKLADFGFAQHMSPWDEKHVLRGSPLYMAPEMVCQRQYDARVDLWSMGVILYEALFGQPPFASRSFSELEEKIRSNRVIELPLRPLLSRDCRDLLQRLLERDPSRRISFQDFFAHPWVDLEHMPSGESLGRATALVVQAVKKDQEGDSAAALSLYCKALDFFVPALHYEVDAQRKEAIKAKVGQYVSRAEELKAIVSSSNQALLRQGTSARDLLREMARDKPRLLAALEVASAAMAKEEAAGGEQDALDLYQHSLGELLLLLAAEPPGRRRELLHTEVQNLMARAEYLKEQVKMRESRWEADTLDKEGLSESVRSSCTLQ", "test": "Inhibition of ULK3 (unknown origin) assessed as remaining activity at 1 uM by Kinome scan method relative to control"}, "[6]": {"target": "Interleukin-1 receptor-associated kinase 1 (Homo sapiens) (UniProt P51617)", "test": "Inhibition of IRAK1 (unknown origin) assessed as remaining activity at 1 uM by Kinome scan method relative to control"}, "[7]": {"target": "Activin receptor type-1B (Homo sapiens) (UniProt P36896)", "sequence (P36896 whole entry)": "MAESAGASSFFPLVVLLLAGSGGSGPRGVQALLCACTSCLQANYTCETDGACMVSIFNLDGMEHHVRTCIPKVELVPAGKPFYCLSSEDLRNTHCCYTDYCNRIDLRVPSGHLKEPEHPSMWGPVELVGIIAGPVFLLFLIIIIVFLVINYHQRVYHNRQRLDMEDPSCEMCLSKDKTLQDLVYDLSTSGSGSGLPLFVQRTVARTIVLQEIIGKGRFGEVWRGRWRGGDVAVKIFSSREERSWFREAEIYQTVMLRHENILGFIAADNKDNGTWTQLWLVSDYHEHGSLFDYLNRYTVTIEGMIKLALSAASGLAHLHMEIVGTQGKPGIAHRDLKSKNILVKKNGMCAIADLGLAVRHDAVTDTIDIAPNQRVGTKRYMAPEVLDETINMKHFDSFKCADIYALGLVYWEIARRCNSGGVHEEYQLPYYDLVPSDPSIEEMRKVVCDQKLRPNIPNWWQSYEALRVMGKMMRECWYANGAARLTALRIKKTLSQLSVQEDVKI", "test": "Inhibition of ACVR1B (unknown origin) assessed as remaining activity at 1 uM by Kinome scan method relative to control"}, "[8]": {"target": "Peripheral plasma membrane protein CASK (Homo sapiens) (UniProt O14936)", "sequence (O14936 whole entry)": "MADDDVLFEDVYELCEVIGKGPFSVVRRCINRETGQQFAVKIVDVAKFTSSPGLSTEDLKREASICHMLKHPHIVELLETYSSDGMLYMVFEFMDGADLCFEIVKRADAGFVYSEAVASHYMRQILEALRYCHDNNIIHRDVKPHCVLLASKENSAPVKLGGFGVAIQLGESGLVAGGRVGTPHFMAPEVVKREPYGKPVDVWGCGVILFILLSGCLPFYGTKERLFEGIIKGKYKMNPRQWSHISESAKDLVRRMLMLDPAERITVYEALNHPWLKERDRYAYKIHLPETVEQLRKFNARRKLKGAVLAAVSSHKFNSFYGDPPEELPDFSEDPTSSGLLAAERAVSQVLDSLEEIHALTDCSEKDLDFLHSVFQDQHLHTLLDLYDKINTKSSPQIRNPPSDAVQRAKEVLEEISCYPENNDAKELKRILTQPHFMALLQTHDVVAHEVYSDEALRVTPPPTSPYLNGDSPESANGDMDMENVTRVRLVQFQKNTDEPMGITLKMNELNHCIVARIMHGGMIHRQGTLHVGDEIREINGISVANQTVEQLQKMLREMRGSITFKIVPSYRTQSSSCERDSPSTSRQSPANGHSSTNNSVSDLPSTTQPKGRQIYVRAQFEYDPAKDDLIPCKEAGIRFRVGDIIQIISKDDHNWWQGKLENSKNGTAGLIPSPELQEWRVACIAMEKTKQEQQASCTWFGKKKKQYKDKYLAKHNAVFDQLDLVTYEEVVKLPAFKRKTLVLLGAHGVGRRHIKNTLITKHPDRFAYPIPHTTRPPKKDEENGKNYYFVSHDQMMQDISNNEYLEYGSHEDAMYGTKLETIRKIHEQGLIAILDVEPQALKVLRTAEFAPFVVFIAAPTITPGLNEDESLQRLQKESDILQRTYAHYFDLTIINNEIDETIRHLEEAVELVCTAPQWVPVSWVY", "test": "Inhibition of CASK (unknown origin) assessed as remaining activity at 1 uM by Kinome scan method relative to control"}, "[9]": {"target": "BDNF/NT-3 growth factors receptor (Homo sapiens) (UniProt Q16620)", "test": "Inhibition of TRKB (unknown origin) assessed as remaining activity at 1 uM by Kinome scan method relative to control"}, "[10]": {"target": "MAP/microtubule affinity-regulating kinase 4 (Homo sapiens) (UniProt Q96L34)", "test": "Inhibition of MARK4 (unknown origin) assessed as remaining activity at 1 uM by Kinome scan method relative to control"}, "[11]": {"target": "Serine/threonine-protein kinase TAO2 (Homo sapiens) (UniProt Q9UL54)", "test": "Inhibition of TAOK2 (unknown origin) assessed as remaining activity at 1 uM by Kinome scan method relative to control"}, "[12]": {"test": "Inhibition of PI3K/AKT/mTOR signalling pathway in human RV-1 cells assessed as decrease in AKT phosphorylation at S473 residue at 2.5 uM incubated for 4 hrs by immunoblot analysis", "format": "cell-based"}, "[13]": {"target": "Serine/threonine-protein kinase RIO3 (Homo sapiens) (UniProt O14730)", "test": "Inhibition of RIOK3 (unknown origin) assessed as remaining activity at 1 uM by Kinome scan method relative to control"}, "[14]": {"target": "Tyrosine-protein kinase Fgr (Homo sapiens) (UniProt P09769)", "test": "Inhibition of FGR (unknown origin) assessed as remaining activity at 1 uM by Kinome scan method relative to control"}, "[15]": {"target": "Serine/threonine-protein kinase 16 (Homo sapiens) (UniProt O75716)", "sequence (O75716 whole entry)": "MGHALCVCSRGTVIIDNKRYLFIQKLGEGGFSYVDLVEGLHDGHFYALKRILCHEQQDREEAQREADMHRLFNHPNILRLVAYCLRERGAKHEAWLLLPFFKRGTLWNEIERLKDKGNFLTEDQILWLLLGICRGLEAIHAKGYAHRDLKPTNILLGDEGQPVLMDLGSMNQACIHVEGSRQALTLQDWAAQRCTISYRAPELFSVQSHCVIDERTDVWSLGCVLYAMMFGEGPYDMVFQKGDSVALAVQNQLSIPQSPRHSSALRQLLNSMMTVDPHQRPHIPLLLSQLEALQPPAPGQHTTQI", "test": "Inhibition of STK16 (unknown origin) assessed as remaining activity at 1 uM by Kinome scan method relative to control"}, "RV-1 [16]": {"tested_on": "RV-1", "test": "Induction of apoptosis in human RV-1 cells at 2.5 uM incubated for 5 days in presence of […] by propidium iodide staining based flow cytometric analysis", "format": "functional, cell-based", "settings": "time 5.0 day"}, "[17]": {"target": "Ribosomal protein S6 kinase alpha-1 (Homo sapiens) (UniProt Q15418)", "sequence (Q15418 whole entry, the tested form may be a part)": "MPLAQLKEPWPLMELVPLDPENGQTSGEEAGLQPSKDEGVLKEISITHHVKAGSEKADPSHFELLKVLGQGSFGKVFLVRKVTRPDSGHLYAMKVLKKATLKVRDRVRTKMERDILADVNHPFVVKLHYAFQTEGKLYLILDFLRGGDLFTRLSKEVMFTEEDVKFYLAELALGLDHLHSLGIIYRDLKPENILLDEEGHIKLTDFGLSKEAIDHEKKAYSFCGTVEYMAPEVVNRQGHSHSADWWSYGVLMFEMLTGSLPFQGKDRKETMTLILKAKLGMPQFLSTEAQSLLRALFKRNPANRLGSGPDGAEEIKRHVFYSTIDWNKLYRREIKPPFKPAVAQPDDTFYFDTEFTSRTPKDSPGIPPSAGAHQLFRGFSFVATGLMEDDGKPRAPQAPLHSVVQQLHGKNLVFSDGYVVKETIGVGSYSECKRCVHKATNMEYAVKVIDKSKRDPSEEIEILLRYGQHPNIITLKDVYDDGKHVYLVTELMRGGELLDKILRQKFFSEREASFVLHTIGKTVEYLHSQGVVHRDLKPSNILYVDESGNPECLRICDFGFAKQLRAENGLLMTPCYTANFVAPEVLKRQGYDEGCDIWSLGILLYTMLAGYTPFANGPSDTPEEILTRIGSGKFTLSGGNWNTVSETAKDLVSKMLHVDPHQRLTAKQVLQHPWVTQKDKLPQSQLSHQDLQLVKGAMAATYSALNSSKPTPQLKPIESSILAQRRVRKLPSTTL", "test": "Inhibition of C-terminal kinase domain RSK1 (unknown origin) assessed as remaining activity at 1 uM by Kinome scan method relative to control"}, "RV-1 [18]": {"tested_on": "RV-1", "test": "Antiproliferative activity against human RV-1 cells assessed as reduction in cell viability at 500 to 2500 nM incubated for 5 days in presence of AZD8055 by CellTiter-Glo assay", "format": "functional, cell-based", "settings": "dose 500-2500 nM, time 5.0 day"}, "[19]": {"target": "Protein kinase C iota type (Homo sapiens) (UniProt P41743)", "test": "Inhibition of PRKCI (unknown origin) assessed as remaining activity at 1 uM by Kinome scan method relative to control"}, "[20]": {"target": "Fibroblast growth factor receptor 2 (Homo sapiens) (UniProt P21802)", "test": "Inhibition of FGFR2 (unknown origin) assessed as remaining activity at 1 uM by Kinome scan method relative to control"}, "RV-1 [21]": {"tested_on": "RV-1", "test": "Antiproliferative activity against human RV-1 cells assessed as reduction in cell viability at 500 to 2500 nM incubated for 5 days in presence of Torin1 by CellTiter-Glo assay", "format": "functional, cell-based", "settings": "dose 500-2500 nM, time 5.0 day"}, "RV-1 [22]": {"tested_on": "RV-1", "test": "Antiproliferative activity against human RV-1 cells assessed as reduction in cell viability at 500 to 2500 nM incubated for 5 days in presence of lapatinib by CellTiter-Glo assay", "format": "functional, cell-based", "settings": "dose 500-2500 nM, time 5.0 day"}, "RV-1 [23]": {"tested_on": "RV-1", "test": "Induction of apoptosis in human RV-1 cells assessed as decrease in number of cell at 5 uM incubated for 3 days by Hoechst 33342 staining based analysis", "format": "functional", "settings": "time 3.0 day"}, "[24]": {"target": "Serine/threonine-protein kinase PAK 2 (Homo sapiens) (UniProt Q13177)", "test": "Inhibition of PAK2 (unknown origin) assessed as remaining activity at 1 uM by Kinome scan method relative to control"}, "[25]": {"tested_on": "Mast/stem cell growth factor receptor Kit (Homo sapiens), P10721 [V559D]", "test": "Inhibition of KIT V559D mutant (unknown origin) assessed as remaining activity at 1 uM by Kinome scan method relative to control"}, "RV-1 [26]": {"tested_on": "RV-1", "test": "Antiproliferative activity against human RV-1 cells assessed as reduction in cell viability at 500 to 2500 nM incubated for 5 days in presence of GDC0941 by CellTiter-Glo assay", "format": "functional, cell-based", "settings": "dose 500-2500 nM, time 5.0 day"}, "[27]": {"target": "Mitogen-activated protein kinase kinase kinase 20 (Homo sapiens) (UniProt Q9NYL2)", "test": "Inhibition of ZAK (unknown origin) assessed as remaining activity at 1 uM by Kinome scan method relative to control"}, "BaF3 [28]": {"tested_on": "BaF3", "test": "Antiproliferative activity against mouse BaF3 cells expressing TEL-fused BLK assessed growth inhibition incubated for 2 to 5 days by CellTiter-Glo assay", "format": "functional", "settings": "time 2-5 day"}, "[29]": {"target": "Serine/threonine-protein kinase STK11 (Homo sapiens) (UniProt Q15831)", "test": "Inhibition of LKB1 (unknown origin) assessed as remaining activity at 1 uM by Kinome scan method relative to control"}, "[30]": {"target": "Myosin light chain kinase family member 4 (Homo sapiens) (UniProt Q86YV6)", "test": "Inhibition of MYLK4 (unknown origin) assessed as remaining activity at 1 uM by Kinome scan method relative to control"}, "[31]": {"target": "Inhibitor of nuclear factor kappa-B kinase subunit beta (Homo sapiens) (UniProt O14920)", "test": "Inhibition of IKK-beta (unknown origin) assessed as remaining activity at 1 uM by Kinome scan method relative to control"}, "BaF3 [32]": {"tested_on": "BaF3", "test": "Antiproliferative activity against mouse BaF3 cells expressing TEL-fused BMX assessed growth inhibition incubated for 2 to 5 days by CellTiter-Glo assay", "format": "functional, cell-based"}, "[33]": {"target": "Interleukin-1 receptor-associated kinase 4 (Homo sapiens) (UniProt Q9NWZ3)", "sequence (Q9NWZ3 whole entry)": "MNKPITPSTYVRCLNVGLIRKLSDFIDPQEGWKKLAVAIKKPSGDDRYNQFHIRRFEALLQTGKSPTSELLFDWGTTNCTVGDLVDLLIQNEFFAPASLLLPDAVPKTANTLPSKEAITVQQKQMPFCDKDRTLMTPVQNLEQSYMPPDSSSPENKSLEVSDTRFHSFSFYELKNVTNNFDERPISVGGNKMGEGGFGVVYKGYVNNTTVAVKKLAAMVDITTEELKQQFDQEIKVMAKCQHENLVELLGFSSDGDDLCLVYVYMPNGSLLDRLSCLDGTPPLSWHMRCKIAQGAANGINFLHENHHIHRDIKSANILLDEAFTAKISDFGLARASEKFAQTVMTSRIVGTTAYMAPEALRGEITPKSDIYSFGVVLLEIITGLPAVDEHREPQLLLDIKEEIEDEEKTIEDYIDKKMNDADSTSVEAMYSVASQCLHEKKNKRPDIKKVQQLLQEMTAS", "test": "Inhibition of IRAK4 (unknown origin) assessed as remaining activity at 1 uM by Kinome scan method relative to control"}}, "note": "Active and inactive are the calls of the source. No cut-off for these calls is given here.", "data": [{"compound": "C=CC(=O)Nc1cc(-n2c(=O)ccc3cnc4ccc(-c5ccc(NS(C)(=O)=O)cc5)cc4c32)ccc1C", "values": [{"measurement": "Activity", "setting": "[1]", "value": 72, "unit": "%"}, {"measurement": "inhibition", "setting": "[2]", "value": "Active"}, {"measurement": "Activity", "setting": "RV-1 [3]", "value": "Active"}, {"measurement": "Activity", "setting": "[4]", "value": 93, "unit": "%"}, {"measurement": "Activity", "setting": "[5]", "value": 80, "unit": "%"}, {"measurement": "Activity", "setting": "[6]", "value": 72, "unit": "%"}, {"measurement": "Activity", "setting": "[7]", "value": 84, "unit": "%"}, {"measurement": "Activity", "setting": "[8]", "value": 61, "unit": "%"}, {"measurement": "Activity", "setting": "[9]", "value": 62, "unit": "%"}, {"measurement": "Activity", "setting": "[10]", "value": 80, "unit": "%"}, {"measurement": "Activity", "setting": "[11]", "value": 80, "unit": "%"}, {"measurement": "inhibition", "setting": "[12]", "value": "inactive"}, {"measurement": "Activity", "setting": "[13]", "value": 55, "unit": "%"}, {"measurement": "Activity", "setting": "[14]", "value": 72, "unit": "%"}, {"measurement": "Activity", "setting": "[15]", "value": 98, "unit": "%"}, {"measurement": "Activity", "setting": "RV-1 [16]", "value": "Active"}, {"measurement": "Activity", "setting": "[17]", "value": 91, "unit": "%"}, {"measurement": "Activity", "setting": "RV-1 [18]", "value": "Active"}, {"measurement": "Activity", "setting": "[19]", "value": 84, "unit": "%"}, {"measurement": "Activity", "setting": "[20]", "value": 96, "unit": "%"}, {"measurement": "Activity", "setting": "RV-1 [21]", "value": "Active"}, {"measurement": "Activity", "setting": "RV-1 [22]", "value": "Active"}, {"measurement": "Activity", "setting": "RV-1 [23]", "value": "Active"}, {"measurement": "Activity", "setting": "[24]", "value": 78, "unit": "%"}, {"measurement": "Activity", "setting": "[25]", "value": 87, "unit": "%"}, {"measurement": "Activity", "setting": "RV-1 [26]", "value": "Active"}, {"measurement": "Activity", "setting": "[27]", "value": 64, "unit": "%"}, {"measurement": "GI50", "setting": "BaF3 [28]", "value": 3640, "unit": "nM"}, {"measurement": "Activity", "setting": "[29]", "value": 79, "unit": "%"}, {"measurement": "Activity", "setting": "[30]", "value": 96, "unit": "%"}, {"measurement": "Activity", "setting": "[31]", "value": 93, "unit": "%"}, {"measurement": "IC50", "setting": "BaF3 [32]", "value": 569, "unit": "nM"}, {"measurement": "GI50", "setting": "BaF3 [32]; time 2-5 day", "value": 25, "unit": "nM"}, {"measurement": "Activity", "setting": "[33]", "value": 84, "unit": "%"}]}]}
